Earlier results on eleven compounds are cited in PMC10544023, “Oxetanes in Drug Discovery Campaigns” (Journal of Medicinal Chemistry, 2023).

The subject of one data set is rat. Also noted: method as in ref 33a = [33]; a Crawford J. J.; Zhang H. In ACS Symposium Series; American Chemical Society , 2019; Vol. 1332 , pp 239 – 266 . b For an overview of all clinical trials and further investigations, see: Drug Bank. Particulars: rat pilot study; ref 33a.
A further data set deals with dog. Also noted: method as in ref 33a = [33]; a Crawford J. J.; Zhang H. In ACS Symposium Series; American Chemical Society , 2019; Vol. 1332 , pp 239 – 266 . b For an overview of all clinical trials and further investigations, see: Drug Bank. The conditions noted are these: dog pilot study; ref 33a.
The test system of another data set is LRRK2 (WT). Also noted: method as in ref 49 = [49]; a Liang J.; Jakalian A.; Lambrecht M. J.; Larouche-Gauthier R.; Huestis M.; Ung M. U.; Wang X.; Yadav A.; Zbieg J. R.; Broccatelli F. Lactams as Cbl-b Inhibitors , WO Patent Appl. no. WO20221. Particulars: read-out: LRRK2 inhibitor (WT) IC50.
Another data set concerns LRRK2. Also noted: method as in ref 49 = [49]; a Liang J.; Jakalian A.; Lambrecht M. J.; Larouche-Gauthier R.; Huestis M.; Ung M. U.; Wang X.; Yadav A.; Zbieg J. R.; Broccatelli F. Lactams as Cbl-b Inhibitors , WO Patent Appl. no. WO20221. The conditions noted are these: read-out: LRRK2 inhibitor IC50.
The subject of another data set is T- versus B-cells. Also noted: method as in PMID 32292557. Particulars: selectivity of T- versus B-cells; ref 35a.
The next data set concerns c-KIT (V654A). Also noted: method as in ref 49 = [49]; a Liang J.; Jakalian A.; Lambrecht M. J.; Larouche-Gauthier R.; Huestis M.; Ung M. U.; Wang X.; Yadav A.; Zbieg J. R.; Broccatelli F. Lactams as Cbl-b Inhibitors , WO Patent Appl. no. WO20221.
The subject of another data set is EZH2. Also noted: method as in ref 49 = [49]; a Liang J.; Jakalian A.; Lambrecht M. J.; Larouche-Gauthier R.; Huestis M.; Ung M. U.; Wang X.; Yadav A.; Zbieg J. R.; Broccatelli F. Lactams as Cbl-b Inhibitors , WO Patent Appl. no. WO20221. The conditions noted are these: read-out: EZH2 inhibitor IC50.
The conditions of data set [1]: amine nitrogen; ref 37a.
The next data set deals with hERG. Also noted: method as in PMID 24900569. The conditions noted are these: ref 37a.
The subject of a further data set is Cbl-b. Also noted: method as in ref 49 = [49]; a Liang J.; Jakalian A.; Lambrecht M. J.; Larouche-Gauthier R.; Huestis M.; Ung M. U.; Wang X.; Yadav A.; Zbieg J. R.; Broccatelli F. Lactams as Cbl-b Inhibitors , WO Patent Appl. no. WO20221. Particulars: read-out: Cbl-b inhibitor IC50.
Another data set relates to KIT D816V. Also noted: method as in ref 49 = [49]; a Liang J.; Jakalian A.; Lambrecht M. J.; Larouche-Gauthier R.; Huestis M.; Ung M. U.; Wang X.; Yadav A.; Zbieg J. R.; Broccatelli F. Lactams as Cbl-b Inhibitors , WO Patent Appl. no. WO20221.
The test system of the next data set is PDGFRα D842V. Also noted: method as in ref 49 = [49]; a Liang J.; Jakalian A.; Lambrecht M. J.; Larouche-Gauthier R.; Huestis M.; Ung M. U.; Wang X.; Yadav A.; Zbieg J. R.; Broccatelli F. Lactams as Cbl-b Inhibitors , WO Patent Appl. no. WO20221.

With `CCN1CCN(c2ccc(Nc3nc(-c4ccc5cn[nH]c5c4)cn4ccnc34)cc2)CC1` [4-ethyl-piperazine], where the note is “piperazine analogues of entospletinib, ref 35a”, the “calcd pKaH” value is on record as 8.0. Consider `CN1CCN(c2ccc(Nc3cc(-c4cccc(N5CCc6c(sc7c6CC(C)(C)C7)C5=O)c4CO)cn(C)c3=O)nc2)CC1` [compound 4], for which the hepatotoxicity entry with rat and in the data set on dog was “high hepatotoxicity” each time.

Regarding `C[C@H]1CN(C2COC2)CCN1c1ccc(Nc2cc(-c3ccnc(N4CCn5c(cc6c5CC(C)(C)C6)C4=O)c3CO)cn(C)c2=O)nc1` [Fenebrutinib, fenebrutinib], for the setting “piperazine ring”, the “pKaH (predicted)” value is 6.3.

In the case of `C[C@H](C(F)F)n1cc(Nc2ncc3cc(C#N)n([C@H]4COC[C@@H]4C)c3n2)c(OC2COC2)n1` [Sanofi WO 2022/263472 A1], the IC50 (in general, the concentration that gives 50% inhibition) in the data set with LRRK2 (WT) was 1 nM.

`O=C1NCCCOc2ccc3[nH]nc(c3c2)-c2cc(cc(N3CCC4(COC4)C3)c2)CO1`: in the data set on LRRK2, the IC50 was less than 10 nM.

Consider `c1cn2cc(-c3ccc4cn[nH]c4c3)nc(Nc3ccc(N4CCN(C5COC5)CC4)cc3)c2n1` [oxetane on the 4-position], for which the T/B ratio with T- versus B-cells is reported as 10. `Cn1ncc(-c2ccc(CNc3cc(-c4cnc5cc(OCCN6CC7(COC7)C6)ccn45)ncn3)cc2)n1` [Merck WO 2021/013864 A1]: the IC50 in the data set with c-KIT (V654A) was 3.3 nM. With `Cc1ccc2ccc(N[C@H]3CC[C@H](CNc4ncc(C(F)(F)C(=O)NC5COC5)cn4)CC3)nc2c1Cl` [Novartis WO 2022/033492 A1], in the data set with EZH2, the IC50 is less than 10 nM. With `CCNC(=O)Nc1ccc(-c2nc3c(c(N4CCOC[C@@H]4C)n2)CCN(C2COC2)C3)cc1` [GDC-0349], in data set [1], the pKaH is listed as 5.0. In addition, the IC50 in the data set on hERG is more than 100000 nM.

As to `CC(C)[C@@H]1CN(C)CCN1Cc1cc2c(c(C(F)(F)F)c1)CN(c1cc(C3(Cc4nncn4C)COC3)cc(OC3CCCC3)n1)C2=O` [Genentech WO 2022/169997 A1], in the data set on Cbl-b, the IC50 is 5.5 nM. As to `C[C@](N)(c1ccc(F)cc1)c1cnc(N2CCN(c3ncnn4cc(-c5cnn(CC6COC6)c5)cc34)CC2)nc1` [Bluprint Medicines WO 2020/210293 A1], the half-inhibitory concentration (IC50) in the data set on KIT D816V and with PDGFRα D842V was less than 4.5 nM each time.
